Reference: ChEMBL document CHEMBL1139800, “Design, synthesis and antitubercular activity of diarylmethylnaphthol derivatives” (Bioorg Med Chem Lett, 2007)
≈ marks a conversion by molar mass, not a printed value. Calls of active or inactive are those of the source. The calls are words filed in the database; no cut-off is given here.

How the values were obtained:
[1] = system: Mycobacterium tuberculosis; assay: Antitubercular activity against Mycobacterium tuberculosis H37Rv by MABA assay; format: functional
[2] = system: Mycobacterium tuberculosis; assay: Antitubercular activity against Mycobacterium tuberculosis H37Rv by Agar dilution method; format: functional
[3] = system: Mycobacterium tuberculosis; assay: Antitubercular activity against Mycobacterium tuberculosis H37Rv at 12.5 ug/mL by MABA assay; format: functional, organism-based
Vero = assay: Cytotoxicity against Vero cells after 3 days; format: cell-based; conditions: chlorocebus sabaeus, 72 h

## NNC(=O)c1ccncc1 [ISONIAZID]
[1]
  MIC: 0.025 µg/mL (≈ 0.182 µM)
[2]
  MIC: 0.025 µg/mL (≈ 0.182 µM)

## CN(C)CCOc1ccc(C(c2ccccc2)c2ccc(F)cc2)c2ccccc12 (stereo unspecified)
[3]
  Activity: inactive
[2]
  MIC: > 12.5 µg/mL

## CN(C)CCOc1ccc2ccccc2c1C(c1ccccc1)c1ccc(Cl)cc1 (stereo unspecified)
[1]
  MIC: 3.12 µg/mL (≈ 7.5 µM)
[2]
  MIC: 6.25 µg/mL (≈ 15 µM)

## Fc1ccc(C(c2ccccc2)c2c(OCCN3CCCCCC3)ccc3ccccc23)cc1 (stereo unspecified)
[1]
  MIC: 6.25 µg/mL (≈ 13.8 µM)
[2]
  MIC: 12.5 µg/mL (≈ 27.6 µM)

## Clc1ccc(C(c2ccccc2)c2ccc(OCCN3CCCC3)c3ccccc23)cc1 (stereo unspecified)
[3]
  Activity: inactive
[2]
  MIC: 12.5 µg/mL (≈ 28.3 µM)

## Clc1ccc(C(c2ccccc2)c2c(OCCN3CCCC3)ccc3ccccc23)cc1 (stereo unspecified)
[1]
  MIC: 3.12 µg/mL (≈ 7.06 µM)
[2]
  MIC: 6.25 µg/mL (≈ 14.1 µM)

## CN(C)CCOc1ccc2ccccc2c1C(c1ccccc1)c1ccc(F)cc1 (stereo unspecified)
[1]
  MIC: 3.12 µg/mL (≈ 7.81 µM)
[2]
  MIC: 6.25 µg/mL (≈ 15.6 µM)

## Fc1ccc(C(c2ccccc2)c2ccc(OCCN3CCCCC3)c3ccccc23)cc1 (stereo unspecified)
[1]
  MIC: 12.5 µg/mL (≈ 28.4 µM)
[2]
  MIC: 12.5 µg/mL (≈ 28.4 µM)

## CCN(CC)CCOc1ccc2ccccc2c1C(c1ccccc1)c1ccc(Cl)cc1 (stereo unspecified)
[1]
  MIC: 3.12 µg/mL (≈ 7.03 µM)
[2]
  MIC: 6.25 µg/mL (≈ 14.1 µM)

## CCN(CC)CCOc1ccc(C(c2ccccc2)c2ccc(F)cc2)c2ccccc12 (stereo unspecified)
[3]
  Activity: inactive
[2]
  MIC: > 12.5 µg/mL

## CCN(CC)CCOc1ccc(C(c2ccccc2)c2ccc(Cl)cc2)c2ccccc12 (stereo unspecified)
[1]
  MIC: 12.5 µg/mL (≈ 28.2 µM)
[2]
  MIC: 12.5 µg/mL (≈ 28.2 µM)

## c1ccc(C(c2ccccc2)c2c(OCCN3CCCC3)ccc3ccccc23)cc1
[1]
  MIC: 6.25 µg/mL (≈ 15.3 µM)
Vero
  Activity: Toxic
[2]
  MIC: 3.12 µg/mL (≈ 7.66 µM)

## c1ccc(C(c2ccccc2)c2ccc(OCCN3CCCC3)c3ccccc23)cc1
[1]
  MIC: 6.25 µg/mL (≈ 15.3 µM)
[2]
  MIC: 12.5 µg/mL (≈ 30.7 µM)

## CCN(CC)CCOc1ccc2ccccc2c1C(c1ccccc1)c1ccccc1
[1]
  MIC: 6.25 µg/mL (≈ 15.3 µM)
Vero
  Activity: Toxic
[2]
  MIC: 3.12 µg/mL (≈ 7.62 µM)

## Clc1ccc(C(c2ccccc2)c2ccc(OCCN3CCCCC3)c3ccccc23)cc1 (stereo unspecified)
[3]
  Activity: inactive
[2]
  MIC: 12.5 µg/mL (≈ 27.4 µM)

## Fc1ccc(C(c2ccccc2)c2c(OCCN3CCCCC3)ccc3ccccc23)cc1 (stereo unspecified)
[1]
  MIC: 6.25 µg/mL (≈ 14.2 µM)
Vero
  Activity: Toxic
[2]
  MIC: 3.12 µg/mL (≈ 7.1 µM)

## Fc1ccc(C(c2ccccc2)c2c(OCCN3CCCC3)ccc3ccccc23)cc1 (stereo unspecified)
[1]
  MIC: 3.12 µg/mL (≈ 7.33 µM)
[2]
  MIC: 6.25 µg/mL (≈ 14.7 µM)

## CN(C)CCOc1ccc2ccccc2c1C(c1ccccc1)c1ccccc1
[1]
  MIC: 6.25 µg/mL (≈ 16.4 µM)
Vero
  Activity: Toxic
[2]
  MIC: 3.12 µg/mL (≈ 8.18 µM)

## CN(C)CCOc1ccc(C(c2ccccc2)c2ccc(Cl)cc2)c2ccccc12 (stereo unspecified)
[3]
  Activity: inactive
[2]
  MIC: > 12.5 µg/mL

## Fc1ccc(C(c2ccccc2)c2ccc(OCCN3CCCC3)c3ccccc23)cc1 (stereo unspecified)
[1]
  MIC: 6.25 µg/mL (≈ 14.7 µM)
[2]
  MIC: 12.5 µg/mL (≈ 29.4 µM)

## Fc1ccc(C(c2ccccc2)c2ccc(OCCN3CCCCCC3)c3ccccc23)cc1 (stereo unspecified)
[1]
  MIC: 12.5 µg/mL (≈ 27.6 µM)
[2]
  MIC: > 12.5 µg/mL

## CCN(CC)CCOc1ccc2ccccc2c1C(c1ccccc1)c1ccc(F)cc1 (stereo unspecified)
[1]
  MIC: 6.25 µg/mL (≈ 14.6 µM)
Vero
  Activity: Toxic
[2]
  MIC: 3.12 µg/mL (≈ 7.3 µM)

## CN(C)CCOc1ccc(C(c2ccccc2)c2ccccc2)c2ccccc12
[1]
  MIC: 12.5 µg/mL (≈ 32.8 µM)
[2]
  MIC: 6.25 µg/mL (≈ 16.4 µM)

## c1ccc(C(c2ccccc2)c2c(OCCN3CCCCCC3)ccc3ccccc23)cc1
[1]
  MIC: 6.25 µg/mL (≈ 14.3 µM)
Vero
  Activity: Toxic
[2]
  MIC: 3.12 µg/mL (≈ 7.16 µM)

## Clc1ccc(C(c2ccccc2)c2c(OCCN3CCCCC3)ccc3ccccc23)cc1 (stereo unspecified)
[1]
  MIC: 3.12 µg/mL (≈ 6.84 µM)
[2]
  MIC: 6.25 µg/mL (≈ 13.7 µM)

## c1ccc(C(c2ccccc2)c2c(OCCN3CCCCC3)ccc3ccccc23)cc1
[1]
  MIC: 6.25 µg/mL (≈ 14.8 µM)
Vero
  Activity: Toxic
[2]
  MIC: 3.12 µg/mL (≈ 7.4 µM)

## CCN(CC)CCOc1ccc(C(c2ccccc2)c2ccccc2)c2ccccc12
[1]
  MIC: 6.25 µg/mL (≈ 15.3 µM)
[2]
  MIC: 12.5 µg/mL (≈ 30.5 µM)

## c1ccc(C(c2ccccc2)c2ccc(OCCN3CCCCCC3)c3ccccc23)cc1
[1]
  MIC: 12.5 µg/mL (≈ 28.7 µM)
[2]
  MIC: 12.5 µg/mL (≈ 28.7 µM)

## Clc1ccc(C(c2ccccc2)c2ccc(OCCN3CCCCCC3)c3ccccc23)cc1 (stereo unspecified)
[3]
  Activity: inactive
[2]
  MIC: > 12.5 µg/mL

## c1ccc(C(c2ccccc2)c2ccc(OCCN3CCCCC3)c3ccccc23)cc1
[1]
  MIC: 12.5 µg/mL (≈ 29.7 µM)
[2]
  MIC: > 12.5 µg/mL

## Clc1ccc(C(c2ccccc2)c2c(OCCN3CCCCCC3)ccc3ccccc23)cc1 (stereo unspecified)
[1]
  MIC: 3.12 µg/mL (≈ 6.64 µM)
[2]
  MIC: 6.25 µg/mL (≈ 13.3 µM)

## CO[C@H]1/C=C/O[C@@]2(C)Oc3c(C)c(O)c4c(O)c(c(/C=N/N5CCN(C)CC5)c(O)c4c3C2=O)NC(=O)/C(C)=C\C=C\[C@H](C)[C@H](O)[C@@H](C)[C@@H](O)[C@@H](C)[C@H](OC(C)=O)[C@@H]1C [RIFAMPIN]
[1]
  MIC: 0.2 µg/mL (≈ 0.243 µM)
[2]
  MIC: 0.2 µg/mL (≈ 0.243 µM)
